The text below walks through data of patent publication EP0364581A1, “METHOD OF STERILIZING PLANT POLLEN” (VSESOJUZNY NAUCHNO-ISSLEDOVATELSKY INST. SELSKOKHOZYAISTV. …, priority 1988, dated 1989).

The structures appear in SMILES notation. Read-outs that look alike come from different tables or passages of the source.

In data set [1] the test system is diploidem Roggen Sorte Belorusskaya 23. Briefly: field test of gametocidal activity (sterilisation of anthers). The data set is classed as in vivo. As to conditions: V. und VI. Periode, 1%ige wäßrige Emulsion, 6 kg/ha; for Prozentsatz des Ansetzens der Körner bei freier Bestäubung: control = 100. The source says:
(§1) Die gametozide Aktivität der erfindungsgemäßen Sterilisationsmittel war in Feldversuch in verschiedenen bodenklimatischen Zonen mit Teilstücken von 10 m^2 Größe in drei-- bis viermaliger Wiederholung nachgewiesen. Jedes Sterilisationsmittel wurde mindestens 5 Jahre lang geprüft.
(§2) Die Entwicklung der Perioden der Organogenese wird zytologisch überwacht. Die Behandlung von Pflanzen mit dem Sterilisationsmittel erfolgt am Anfang der fünften Periode der Organogenese nach Kupermann.
Mit dem Ahrenschieben verwirklicht man die Isolierung von Hauptähren und anderen Stockwerken in Pergamentbeuteln. Bei Weizen und Tritikale werden Einzelisolatoren verwendet. Bei Roggen schließt man je 1 Ähre von 5 bis 7 verschiedenen nebeneinander befindlichen Pflanzen in einen gemeinsamen Isolator ein. Bei Hirse wird jede Rispe getrennt isoliert. Der Sterilitätsprozentsatz (X) für Weizen, Roggen, Tritikale und Hirse wird nach der Formel [formula]
Samen von unbehandelten Kontrollpflanzen ermittelt.
Die Kornzahl in nicht isolierten Ähren von Kontrollpflanzen wird bedingt für 100% Ansetzen bei freier Bestäubung angenommen.
Um zuverlässige Angaben zu erhalten, verwendet man 20 bis 25 Isolatoren jeder Wiederholung für Weizen und Tritikale, 10 bis 15 Isolatoren jeder Wiederholung für Roggen und Hirse.
Pflanzen von diploidem Roggen Sorte Belorusskaya 23 werden in der V. und VI. Periode der Organogenese (nach Kupermann) mit einer 1%igen wäßrigen Emulsion von Phthalsäuredibutylester, Kaliumsalz der 2-Methyl-3-zyklohexenkarbonsäure behandelt. Die Emulsion enthält 0,01 Masse% Dodezylsulfat, und 0,1 Masse% C12-C14-Kalziumalkylbenzolsulfonat.
Der Verbrauch an Präparat beträgt 6 kg/ha. Als Kontrolle dienen Pflanzen, behandelt mit einem Verdünner ohne Sterilisationsmittel.

Data set [2] relates to Sonnenblume Sorte Peredovik. Briefly: field test of chemical sterilisation of sunflower pollen. The data set is classed as in vivo. As to conditions: V. Periode.
Excerpt: as §1, §2
(§3) Zur Kontrolle der chemischen Sterilisation des Sonnenblumenpollens werden für jede Verbindung 45 behandelte Pflanzen jeder Wiederholung benutzt, wobei 15 Pflanzen zwecks Selbsbestäubung isoliert werden, Blutenkörbchen von 15 anderen Pflanzen mit einem Pollengemisch, gesammelt von 20 bis 25 behandelten isolierten Körbchen, bestäubt werden, und 15 Pflanzen für freie Bestäubung gelassen werden, damit das Ansetzen von Achänen mit dem Pollen der Vaterform kontrolliert werden kann.
(§4) Man beurteilt die Pollensterilität von Pflanzen der Sonnenblume nach der Pollenfertilität und -keimfahigkeit, nach den morphologischen Besonderheiten von Spermien und nach der Fähigkeit von Achänen zum Ansetzen bei der Bestäubung der behandelten isolierten Pflanzen mit dem Pollen der unbehandelten väterlischen Form. Die Läbensfähigkeit der Eizelle wird nach der Samenbildung bei behandelten Pflanzen bei freier Bestäubung der väterlichen Form bestimmt.
Pflanzen der Sonnenblume Sorte Peredovik werden in der V. […] Die Emulsion enthält 0,01 Masse% Dimethylsulfoxid und 0,1 Masse% C12-C14-Kalziumalkylbenzolsulfonat. Die Sonnenblume Linie VK-119 werden mit einer 0,2%igen wäßrigen Emulsion von Phthalsäuredibutylester, 0,1%igen wäßrigen Emulsion von Phthalsäurediäthylester, Kaliumsalz der 2-Methyl-3-zyklohexenkarbonsäure, 1%igen wäßrigen Emulsion von Natriumsalz der. 2-Methyl-3-zyklohexen- karbonsäure und 0,01%igen wäßrigen Emulsion von 2-Methyl--3-zyklohexenkarbonsäuremethylester behandelt. Die Emulsion enthält 0,01 Masse% Dimethylformamid und 0,1 Masse% C12-C14--Kalziumalkylbenzolsulfonat.
(§5) Als Kontrolle in allen Fällen dienen Pflanzen, behandelt mit einem Verdünner ohne Sterilisationsmittel.

A further data set has as its system Sonnenblume Linie BK-373. Described as above. The data set is classed as in vivo.
Excerpt: as §1, §2, §3, §4
Die Sonnenblume Linie BK-373 werden mit einer 0,2%igen wäßrigen Emulsion von Phthalsäuredibutylester, 0,1%igen wäßrigen Emulsion von Kaliumsalz der 2-Methyl-3-zyklohexylkar- bonsäuremethylester und 0,2%igen wäßrigen Emulsion von Phthalsäurediäthylester behandelt. Die Emulsion enthält 0,01 Masse% Dodezylsulfat und 0,1 Masse% C12-C14-Kalziumalkylbenzolsulfonat.
as §5

Data set [3] in a line: acute toxicity in animals. Further details: species or system weiße Ratten. The note with it: rat, in vivo. The source says: (§6) Alle erfindungsgemäßen Karbonsäurederivate, die als Sterilisationsmittel zur Verwendung kommen, waren auf die akute Toxizität im Tierversuch geprüft. Die Prüfergebnisse haben ergeben, daß die angegebenen Verbindungen von schwacher oder mittlerer Toxizität sind.

Data set [4] in a line: acute toxicity in animals. As to conditions: mouse, in vivo, po; weiße Mäuse; einmalige Einführung in den Magen.
Excerpt: as §6

Setting [5] is: Präparat 0,05 Masse%, 0,3 kg/ha.
Setting [6] is: Präparat 0,01 Masse%, 0,06 kg/ha.

Consider `CCCCOC(=O)c1ccccc1C(=O)OCCCC` [Beispiel 74, Phthalsäuredibutylester], for which, in data set [1], the “Kornzahl der Ähre bei freier Bestäubung” value is listed as 42,5, the “Kornzahl der Ähre im Isolator” value was 0,0, the “Prozentsatz der Sterilität” value is reported as 100,0% and the “Prozentsatz des Ansetzens der Körner bei freier Bestäubung” value was 94,9%.

In the case of `CC1C=CCCC1C(=O)O` (stereo not shown) [Beispiel 75, Kaliumsalz der 2-Methyl-3-zyklohexenkarbonsäure], in data set [1], the “Kornzahl der Ähre bei freier Bestäubung” value is 43,0, the “Kornzahl der Ähre im Isolator” value is listed as 0,0, the “Prozentsatz der Sterilität” value is listed as 100,0% and the “Prozentsatz des Ansetzens der Körner bei freier Bestäubung” value is on record as 95,0%.

Regarding `CC1C=CCCC1C(=O)O` (stereo not shown) [Beispiel 105, Kaliumsalz der 2-Methyl-3-zyklohexenkarbonsäu-re], in data set [2] (Präparat 1,0 Masse%, 6,0 kg/ha), the “Ansetzen der Achänen bei freier Bestäubung” value is given as 85,0 and the “Prozentsatz der Sterilität” value is 100,0%.

With `CC1C=CCCC1C(=O)O` (stereo not shown) [Beispiel 106, Natriumsalz der 2-Methyl-3-zyklohexenkarbonsäure], in data set [2] (Präparat 1,0 Masse%, 6,0 kg/ha), the “Ansetzen der Achänen bei freier Bestäubung” value is on record as 84,1 and the “Prozentsatz der Sterilität” value is reported as 100,0%.

`COC(=O)C1CCC=CC1C` (stereo not shown) [Beispiel 107, 2-Methyl-3-zyklo-hexenkarbonsäuremethylester]: in data set [2] (setting [5]), the “Ansetzen der Achänen bei freier Bestäubung” value was 83,8 and the “Prozentsatz der Sterilität” value is on record as 100,0%.

On to `CCCCOC(=O)c1ccccc1C(=O)OCCCC` [Beispiel 113, Phthalsäuredibutylester], for which, in the data set with Sonnenblume Linie BK-373 (Präparat 0,2 Masse%, 1,2 kg/ha), the “Ansetzen der Achänen bei freier Bestäubung” value is on record as 61,5 and the “Prozentsatz der Sterilität” value was 100,0%.

As to `CC1C=CCCC1C(=O)[O-].[K+]` (stereo not shown) [Beispiel 114, Kaliumsalz der 2-Methyl-3-zyklohexenkarbonsäure], in the data set on Sonnenblume Linie BK-373 (Präparat 0,1 Masse%, 0,6 kg/ha), the “Ansetzen der Achänen bei freier Bestäubung” value is reported as 62,9 and the “Prozentsatz der Sterilität” value is reported as 100,0%.

As to `COC(=O)C1CCC=CC1C` (stereo not shown) [Beispiel 115, 2-Methyl--3-zyklohexenkarbonsäuremethylester], in the data set with Sonnenblume Linie BK-373 (setting [6]), the “Ansetzen der Achänen bei freier Bestäubung” value is 65,7 and the “Prozentsatz der Sterilität” value was 100,0%.

In the case of `CCOC(=O)c1ccccc1C(=O)OCC` [Beispiel 116, Phthalsäurediäthylester], in the data set on Sonnenblume Linie BK-373 (Präparat 0,2 Masse%, 1,2 kg/ha), the “Ansetzen der Achänen bei freier Bestäubung” value was 64,6 and the “Prozentsatz der Sterilität” value is 100,0%.

For the molecule `CC1C=CCCC1C(=O)O` (stereo not shown) [Kaliumsalz der 2-Methyl-3-zyklohexenkarbonsäure], the LD50 in data set [3] amounted to 7660 mg/kg.

In the case of `CCCCOC(=O)c1ccccc1C(=O)OCCCC` [Phthalsäuredibutylester], the LD50 in data set [4] amounted to 2840 mg/kg; in data set [3] (weiße Ratten, einmalige Einführung in den Magen (route printed for Phthalsäuredibutylester), read-out: LD50), 6670 mg/kg.
